In patent publication US20230085307A1, “PYRIDAZINONE COMPOUND AND HERBICIDE” (NISSAN CHEMICAL CORPORATION, priority 2019, published 2023):

What was measured:
barnyard grass [1] = assay: Test Example 3: herbicidal effect by foliage application, Wagner pot (Table 18, symbol H); type: in vivo, barnyard grass (Echinochloa crus-galli); details: 320 g/ha
Summary of the method: (§1)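 Plants were sown in alluvial soil held under 0.1–0.5 cm standing water and grown 14 days in a greenhouse at 25–30 °C. An emulsifiable formulation, water-diluted to the set dose, was then sprayed onto the foliage, and effects were scored three weeks later using previously defined criteria.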

Chinese sprangletop = assay: Test Example 3: herbicidal effect by foliage application, Wagner pot (Table 18, symbol D); type: in vivo, chinese sprangletop (Leptochloa chinensis); details: 320 g/ha
Summary of the method: as §1

rice flat sedge = assay: Test Example 3: herbicidal effect by foliage application, Wagner pot (Table 18, symbol E); type: in vivo, rice flat sedge (Cyperus iria); details: 320 g/ha
Summary of the method: as §1

southern crabgrass [2] = assay: Test Example 4: herbicidal effect by soil treatment (Table 19, symbol F); type: in vivo, southern crabgrass (Digitaria ciliaris); details: 320 g/ha
Summary of the method: (§2)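 Pre-emergence style soil spray: seeds under ~1.5 cm sterilized diluvial soil received a uniform coat of emulsion diluted to the predetermined herbicide amount. Greenhouse 25–30° C; readout at week three on previously defined criteria.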

green foxtail [3] = assay: Test Example 4: herbicidal effect by soil treatment (Table 19, symbol G); type: in vivo, green foxtail (Setaria viridis); details: 320 g/ha
Summary of the method: as §2

barnyard grass [4] = assay: Test Example 4: herbicidal effect by soil treatment (Table 19, symbol H); type: in vivo, barnyard grass (Echinochloa crus-galli); details: 320 g/ha
Summary of the method: as §2

wild oat [5] = assay: Test Example 4: herbicidal effect by soil treatment (Table 19, symbol I); type: in vivo, wild oat (Avena fatua); details: 320 g/ha
Summary of the method: as §2

blackgrass [6] = assay: Test Example 4: herbicidal effect by soil treatment (Table 19, symbol J); type: in vivo, blackgrass (Alopecurus myosuroides); details: 320 g/ha
Summary of the method: as §2

Italian ryegrass [7] = assay: Test Example 4: herbicidal effect by soil treatment (Table 19, symbol K); type: in vivo, Italian ryegrass (Lolium multiflorum); details: 320 g/ha
Summary of the method: as §2

windgrass [8] = assay: Test Example 4: herbicidal effect by soil treatment (Table 19, symbol L); type: in vivo, windgrass (Apera spica-venti); details: 320 g/ha
Summary of the method: as §2

velvetleaf [9] = assay: Test Example 4: herbicidal effect by soil treatment (Table 19, symbol M); type: in vivo, velvetleaf (Abutilon theophrasti); details: 320 g/ha
Summary of the method: as §2

redroot pigweed = assay: Test Example 4: herbicidal effect by soil treatment (Table 19, symbol N); type: in vivo, redroot pigweed (Amaranthus retroflexus); details: 320 g/ha
Summary of the method: as §2

lambsquarters [10] = assay: Test Example 4: herbicidal effect by soil treatment (Table 19, symbol O); type: in vivo, lambsquarters (Chenopodium album); details: 320 g/ha
Summary of the method: as §2

chickweed = assay: Test Example 4: herbicidal effect by soil treatment (Table 19, symbol P); type: in vivo, common chickweed (Stellaria media); details: 320 g/ha
Summary of the method: as §2

persian speedwell [11] = assay: Test Example 4: herbicidal effect by soil treatment (Table 19, symbol R); type: in vivo, Persian speedwell (Veronica persica); details: 320 g/ha
Summary of the method: as §2

southern crabgrass [12] = assay: Test Example 5: herbicidal effect by foliage application, plastic box (Table 20, symbol F); type: in vivo, southern crabgrass (Digitaria ciliaris); details: foliage application, 320 g/ha, 3 weeks after application
Summary of the method: (§3)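 Plants were sown into sterilized diluvial soil under about 1.5 cm cover and kept in a greenhouse at 25° C. to 30° C. Fourteen days on, foliage received an even spray of the diluted emulsion. Herbicidal or crop effect was judged three weeks afterwards.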

green foxtail [13] = assay: Test Example 5: herbicidal effect by foliage application, plastic box (Table 20, symbol G); type: in vivo, green foxtail (Setaria viridis); details: foliage application, 320 g/ha, 3 weeks after application
Summary of the method: as §3

barnyard grass [14] = assay: Test Example 5: herbicidal effect by foliage application, plastic box (Table 20, symbol H); type: in vivo, barnyard grass (Echinochloa crus-galli); details: foliage application, 320 g/ha, 3 weeks after application
Summary of the method: as §3

wild oat [15] = assay: Test Example 5: herbicidal effect by foliage application, plastic box (Table 20, symbol I); type: in vivo, wild oat (Avena fatua); details: foliage application, 320 g/ha, 3 weeks after application
Summary of the method: as §3

blackgrass [16] = assay: Test Example 5: herbicidal effect by foliage application, plastic box (Table 20, symbol J); type: in vivo, blackgrass (Alopecurus myosuroides); details: foliage application, 320 g/ha, 3 weeks after application
Summary of the method: as §3

Italian ryegrass [17] = assay: Test Example 5: herbicidal effect by foliage application, plastic box (Table 20, symbol K); type: in vivo, Italian ryegrass (Lolium multiflorum); details: foliage application, 320 g/ha, 3 weeks after application
Summary of the method: as §3

windgrass [18] = assay: Test Example 5: herbicidal effect by foliage application, plastic box (Table 20, symbol L); type: in vivo, windgrass (Apera spica-venti); details: foliage application, 320 g/ha, 3 weeks after application
Summary of the method: as §3

velvetleaf [19] = assay: Test Example 5: herbicidal effect by foliage application, plastic box (Table 20, symbol M); type: in vivo, velvetleaf (Abutilon theophrasti); details: foliage application, 320 g/ha, 3 weeks after application
Summary of the method: as §3

lambsquarters [20] = assay: Test Example 5: herbicidal effect by foliage application, plastic box (Table 20, symbol O); type: in vivo, lambsquarters (Chenopodium album); details: foliage application, 320 g/ha, 3 weeks after application
Summary of the method: as §3

persian speedwell [21] = assay: Test Example 5: herbicidal effect by foliage application, plastic box (Table 20, symbol R); type: in vivo, Persian speedwell (Veronica persica); details: foliage application, 320 g/ha, 3 weeks after application
Summary of the method: as §3

Cc1nn(C)c(=O)c(-c2c(-c3ccc(OC(F)(F)F)cc3)sc3ccc(F)cc23)c1O [2-045]
herbicidal effect on H (barnyard grass), rating 0-5 (barnyard grass [1]): 5 (Herbicidal rate of 90% or more (almost completely withered)) | herbicidal effect on D (Chinese sprangletop), rating 0-5 (Chinese sprangletop): 2 (Herbicidal rate of 20% or more and less than 40%) | herbicidal effect on E (rice flat sedge), rating 0-5 (rice flat sedge): 5 (Herbicidal rate of 90% or more (almost completely withered)) | herbicidal effect rating, F: southern crabgrass (southern crabgrass [2]): 3 (Herbicidal rate of 40% or more and less than 70%) | herbicidal effect rating, G: green foxtail (green foxtail [3]): 4 (Herbicidal rate of 70% or more and less than 90%) | herbicidal effect rating, H: barnyard grass (barnyard grass [4]): 1 (Herbicidal rate of 5% or more and less than 20%) | herbicidal effect rating, I: wild oat (wild oat [5]): 0 (Herbicidal rate of 5% or less (almost no effect)) | herbicidal effect rating, J: blackgrass (blackgrass [6]): 0 (Herbicidal rate of 5% or less (almost no effect)) | herbicidal effect rating, K: Italian ryegrass (Italian ryegrass [7]): 5 (Herbicidal rate of 90% or more (almost completely withered)) | herbicidal effect rating, L: windgrass (windgrass [8]): 0 (Herbicidal rate of 5% or less (almost no effect)) | herbicidal effect rating, M: velvetleaf (velvetleaf [9]): 4 (Herbicidal rate of 70% or more and less than 90%) | herbicidal effect rating, N: redroot pigweed (redroot pigweed): 4 (Herbicidal rate of 70% or more and less than 90%) | herbicidal effect rating, O: lambsquarters (lambsquarters [10]): 5 (Herbicidal rate of 90% or more (almost completely withered)) | herbicidal effect rating, P: chickweed (chickweed): 5 (Herbicidal rate of 90% or more (almost completely withered)) | herbicidal effect rating, R: persian speedwell (persian speedwell [11]): 5 (Herbicidal rate of 90% or more (almost completely withered)) | effect on southern crabgrass (F) (southern crabgrass [12]): 0 (Herbicidal rate of 5% or less (almost no effect)) | effect on green foxtail (G) (green foxtail [13]): 5 (Herbicidal rate of 90% or more (almost completely withered)) | effect on barnyard grass (H) (barnyard grass [14]): 5 (Herbicidal rate of 90% or more (almost completely withered)) | effect on wild oat (I) (wild oat [15]): 0 (Herbicidal rate of 5% or less (almost no effect)) | effect on blackgrass (J) (blackgrass [16]): 0 (Herbicidal rate of 5% or less (almost no effect)) | effect on Italian ryegrass (K) (Italian ryegrass [17]): 5 (Herbicidal rate of 90% or more (almost completely withered)) | effect on windgrass (L) (windgrass [18]): 5 (Herbicidal rate of 90% or more (almost completely withered)) | effect on velvetleaf (M) (velvetleaf [19]): 5 (Herbicidal rate of 90% or more (almost completely withered)) | effect on lambsquarters (O) (lambsquarters [20]): 5 (Herbicidal rate of 90% or more (almost completely withered)) | effect on persian speedwell (R) (persian speedwell [21]): 5 (Herbicidal rate of 90% or more (almost completely withered))
